Legend:
FGFR3 (h) = FGFR3 (h) (Homo sapiens, UniProt P22607); experiment: FGFR3 (enzymatic assay), TR-FRET; assay type: biochemical; conditions: read-out: FGFR 3 pIC50 (converted)
Method: (§1) In a final reaction volume of 30 μL, FGFR3 (h) (40 ng/ml) was incubated with 50 mM HEPES pH 7.5, 6 mM MnCl2, 1 mM DTT, 0.1 mM Na3VO4, 0.01% Triton-X-100, 500 nM Btn-Flt3 and 25 μM ATP in the presence of compound (1% DMSO final). […] Time-Resolved Fluorescence Resonance Energy Transfer (TR-FRET) signal (ex340 nm. Em 620 nm, em 655 nm) was measured afterwards and results are expressed in RFU (Relative Fluorescence Units).

FGFR4 (h) = FGFR4 (h) (Homo sapiens, UniProt P22455); experiment: FGFR4 (enzymatic assay), TR-FRET; assay type: biochemical; conditions: read-out: FGFR 4 pIC50 (converted)
Chain of FGFR4 (h) (P22455 22-802): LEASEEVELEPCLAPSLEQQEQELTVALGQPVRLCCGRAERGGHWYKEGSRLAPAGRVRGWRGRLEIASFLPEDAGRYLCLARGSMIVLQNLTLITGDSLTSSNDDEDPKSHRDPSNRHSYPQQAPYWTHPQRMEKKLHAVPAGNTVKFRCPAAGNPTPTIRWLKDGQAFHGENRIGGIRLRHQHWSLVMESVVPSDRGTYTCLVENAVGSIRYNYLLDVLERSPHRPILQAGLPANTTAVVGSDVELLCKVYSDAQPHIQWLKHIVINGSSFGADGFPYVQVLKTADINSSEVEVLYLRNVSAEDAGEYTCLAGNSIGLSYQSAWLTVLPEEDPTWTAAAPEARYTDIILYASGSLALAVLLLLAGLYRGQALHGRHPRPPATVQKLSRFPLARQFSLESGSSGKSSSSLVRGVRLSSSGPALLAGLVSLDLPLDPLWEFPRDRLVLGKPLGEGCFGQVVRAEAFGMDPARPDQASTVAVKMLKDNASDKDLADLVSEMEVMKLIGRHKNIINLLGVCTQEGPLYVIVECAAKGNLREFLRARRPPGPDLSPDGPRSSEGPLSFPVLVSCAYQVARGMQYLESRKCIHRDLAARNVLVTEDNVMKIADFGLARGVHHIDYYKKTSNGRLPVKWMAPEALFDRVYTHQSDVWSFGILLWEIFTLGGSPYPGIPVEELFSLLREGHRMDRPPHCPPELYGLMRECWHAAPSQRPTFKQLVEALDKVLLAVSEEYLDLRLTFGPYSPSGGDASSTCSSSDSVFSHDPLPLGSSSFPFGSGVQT
Method: as §1, with “FGFR4” for “FGFR3”, “(60” for “(40”, “5” for “25”

[1] = molecular target: Ba/F3-FGFR1-transfected cells (Homo sapiens, UniProt P11362); experiment: Ba/F3-FGFR1 (minus IL3) cellular proliferation assay, Alamar Blue; assay type: cell-based; conditions: for BAF3-FGFR 1 (MIN IL3) 384 well pIC50: minus IL3, 384 well; for BAF3-FGFR 1 (MIN IL3) 96 well pIC50: minus IL3, 96 well
Chain of Ba/F3-FGFR1-transfected cells (P11362 whole entry, change not shown): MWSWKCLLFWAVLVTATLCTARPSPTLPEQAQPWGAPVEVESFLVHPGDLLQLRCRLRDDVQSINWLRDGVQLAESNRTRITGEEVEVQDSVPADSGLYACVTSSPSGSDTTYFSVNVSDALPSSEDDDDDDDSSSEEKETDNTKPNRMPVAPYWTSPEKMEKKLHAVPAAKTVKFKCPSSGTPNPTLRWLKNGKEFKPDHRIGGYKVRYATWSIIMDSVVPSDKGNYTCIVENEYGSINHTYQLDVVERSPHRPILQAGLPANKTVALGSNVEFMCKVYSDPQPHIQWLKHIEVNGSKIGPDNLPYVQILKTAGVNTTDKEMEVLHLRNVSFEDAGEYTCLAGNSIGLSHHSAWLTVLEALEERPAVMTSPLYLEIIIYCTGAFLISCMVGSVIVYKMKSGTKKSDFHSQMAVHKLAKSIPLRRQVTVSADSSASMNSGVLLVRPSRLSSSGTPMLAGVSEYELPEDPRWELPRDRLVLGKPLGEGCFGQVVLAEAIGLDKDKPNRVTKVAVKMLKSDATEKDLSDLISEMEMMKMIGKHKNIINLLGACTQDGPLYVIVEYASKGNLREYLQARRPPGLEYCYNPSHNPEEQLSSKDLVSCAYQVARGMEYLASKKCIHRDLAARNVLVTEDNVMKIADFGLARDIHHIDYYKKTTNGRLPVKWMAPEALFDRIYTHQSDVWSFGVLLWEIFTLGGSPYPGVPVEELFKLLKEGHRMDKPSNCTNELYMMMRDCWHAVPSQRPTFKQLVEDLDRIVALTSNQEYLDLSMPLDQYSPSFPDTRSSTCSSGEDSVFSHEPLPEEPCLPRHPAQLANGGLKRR
Method in brief: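 Readout: resazurin reduction, RFU at ex 540 nm/em 590 nm, measured after 4 h with Alamar Blue. This follows 24 h compound treatment (DMSO dilutions) at 37 °C, 5% CO2 in phenol red-free RPMI-1640 plus 10% FBS, at 20000 or 10000 cells/well depending on format.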

FGFR2 (h) = FGFR2 (h) (Homo sapiens, UniProt P21802); experiment: FGFR2 (enzymatic assay), TR-FRET; assay type: biochemical; conditions: read-out: FGFR 2 pIC50 (converted)
Chain of FGFR2 (h) (P21802 22-821): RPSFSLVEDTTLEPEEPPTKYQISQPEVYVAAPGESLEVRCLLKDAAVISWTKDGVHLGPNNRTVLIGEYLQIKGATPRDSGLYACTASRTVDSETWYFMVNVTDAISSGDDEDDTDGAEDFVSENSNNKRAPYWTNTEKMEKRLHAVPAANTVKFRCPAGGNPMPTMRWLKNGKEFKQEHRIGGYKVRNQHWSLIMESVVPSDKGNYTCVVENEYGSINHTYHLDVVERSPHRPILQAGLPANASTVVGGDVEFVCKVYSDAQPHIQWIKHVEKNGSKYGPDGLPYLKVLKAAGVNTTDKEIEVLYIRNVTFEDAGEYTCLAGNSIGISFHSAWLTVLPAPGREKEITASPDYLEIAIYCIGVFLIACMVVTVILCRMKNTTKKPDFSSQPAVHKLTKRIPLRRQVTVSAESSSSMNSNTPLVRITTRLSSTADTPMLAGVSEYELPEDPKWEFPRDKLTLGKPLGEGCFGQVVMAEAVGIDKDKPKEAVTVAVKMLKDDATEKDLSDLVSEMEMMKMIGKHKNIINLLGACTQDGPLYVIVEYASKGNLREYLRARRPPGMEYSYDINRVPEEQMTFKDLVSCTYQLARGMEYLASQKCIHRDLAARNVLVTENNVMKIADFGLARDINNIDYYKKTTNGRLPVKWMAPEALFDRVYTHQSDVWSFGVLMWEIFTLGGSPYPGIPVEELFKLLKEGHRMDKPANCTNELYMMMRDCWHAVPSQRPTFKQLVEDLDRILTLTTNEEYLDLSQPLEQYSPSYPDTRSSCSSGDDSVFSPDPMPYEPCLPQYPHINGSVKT
Method: as §1, with “FGFR2” for “FGFR3”, “(150” for “(40”, “0.4” for “25”, “in” for “in RFU”

Chain of FGFR3 (h) (P22607 23-806): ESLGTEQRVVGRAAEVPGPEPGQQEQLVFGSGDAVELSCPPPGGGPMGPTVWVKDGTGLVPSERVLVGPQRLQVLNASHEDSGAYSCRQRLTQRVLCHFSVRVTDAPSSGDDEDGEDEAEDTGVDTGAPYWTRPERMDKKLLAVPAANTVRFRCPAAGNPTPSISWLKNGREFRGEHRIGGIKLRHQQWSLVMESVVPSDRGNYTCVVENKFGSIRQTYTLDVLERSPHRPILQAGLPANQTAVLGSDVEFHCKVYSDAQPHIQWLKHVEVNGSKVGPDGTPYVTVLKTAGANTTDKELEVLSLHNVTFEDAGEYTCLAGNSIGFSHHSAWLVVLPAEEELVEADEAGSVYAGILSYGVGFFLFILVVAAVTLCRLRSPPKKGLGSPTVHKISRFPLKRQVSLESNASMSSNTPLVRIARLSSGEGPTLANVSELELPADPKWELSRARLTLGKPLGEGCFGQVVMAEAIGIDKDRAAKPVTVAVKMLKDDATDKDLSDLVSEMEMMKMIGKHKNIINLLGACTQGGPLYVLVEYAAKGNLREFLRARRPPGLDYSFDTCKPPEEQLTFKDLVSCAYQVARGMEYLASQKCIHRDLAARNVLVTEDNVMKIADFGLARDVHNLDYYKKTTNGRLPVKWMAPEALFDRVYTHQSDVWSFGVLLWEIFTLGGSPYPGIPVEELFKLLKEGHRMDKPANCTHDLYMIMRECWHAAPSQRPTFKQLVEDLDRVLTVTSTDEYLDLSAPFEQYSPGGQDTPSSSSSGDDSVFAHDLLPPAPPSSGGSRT

| Structure (SMILES) | IC50 (FGFR3 (h)) | IC50 (FGFR4 (h)) | BAF3-FGFR 1 (MIN IL3) 384 well pIC50 [1] | melting point | IC50 (FGFR2 (h)) | BAF3-FGFR 1 (MIN IL3) 96 well pIC50 [1] |
| --- | --- | --- | --- | --- | --- | --- |
| COc1cc(OC)cc(N(CC2CC2)c2ccc3ncc(-n4cnc(CO)c4)nc3c2)c1 [Compound 105] | 0.0138 µM | 0.132 µM | 5.32 | 154 °C | 0.0407 µM |  |
| COc1cc(OC)cc(N(CCNC(C)C)c2ccc3ncc(-c4ccccc4)nc3c2)c1 [Compound 121] | 0.00589 µM | 0.00794 µM | 6.45 |  | 0.00372 µM |  |
| CNC(=O)c1cc(-c2cnc3ccc(N(CCNCC(F)(F)F)c4cc(OC)cc(OC)c4)cc3n2)ccn1 [Compound 113] | 0.0339 µM | 0.17 µM | 5.44 | 98 °C | 0.0457 µM |  |
| COc1cc(OC)cc(N(CCCO)c2ccc3ncc(-c4ccc(C)nc4)nc3c2)c1 [Compound 115] | 0.00479 µM | 0.038 µM | 5.93 | 166 °C | 0.0135 µM |  |
| COc1cc(OC)cc(N(CC2CC2)c2ccc3ncc(C(=O)NCc4ccc(F)cc4)nc3c2)c1 [Compound 101] | > 1 µM | > 1 µM | <5 | 140 °C | > 1 µM | <5 |
| COc1cc(OC)cc(N(CCCO)c2ccc3ncc(-c4ccnc(C(=O)NCCCCN)c4)nc3c2)c1 [Compound 126] | 0.0178 µM | 0.117 µM | 5.31 | 130 °C | 0.0331 µM |  |
| CNC(=O)c1cc(-c2cnc3ccc(N(CCN4CCCC4CO)c4cc(OC)cc(OC)c4)cc3n2)ccn1 (stereo not drawn) [Compound 109] | 0.0117 µM | 0.251 µM | 6.63 | 172 °C | 0.00631 µM |  |
| COc1cc(OC)cc(N(CCO)c2ccc3ncc(-c4ccc(N)nc4)nc3c2)c1 [Compound 106] | 0.00302 µM | 0.0195 µM | 6.455 | 160 °C | 0.00582 µM |  |
| COc1cc(OC)cc(N(CC2CC2)c2ccc3ncc(Nc4nccs4)nc3c2)c1 [Compound 98] | 0.191 µM | > 1 µM | <5 | 213 °C | 0.676 µM |  |
| COc1cc(OC)cc(N(CC2CC2)c2ccc3ncc(-c4cccn4C)nc3c2)c1 [Compound 103] | ~1 µM | > 1 µM | <5 | 141 °C | > 1 µM | <5 |
| COc1cc(OC)cc(N(CC2CC2)c2ccc3ncc(C(=O)NCCN4CCOCC4)nc3c2)c1 [Compound 96] | 0.55 µM | > 1 µM | <5 | 112 °C | ~0.912 µM |  |
| COc1cc(OC)cc(N(CC2CC2)c2ccc3ncc(-c4nccs4)nc3c2)c1 [Compound 97] | 0.676 µM | 1.05 µM | <5 | 148 °C | 2 µM |  |
| COc1cc(OC)cc(N(CC2CC2)c2ccc3ncc(-c4nnn(C)n4)nc3c2)c1 [Compound 82] | 0.148 µM | > 1 µM | <5 | 143 °C | 0.229 µM | 5.03 |
| CNCCN(c1cc(OC)cc(OC)c1)c1ccc2ncc(-c3ccc(NC(=O)OC(C)(C)C)nc3)nc2c1 [Compound 81] | 0.01 µM | 0.0631 µM | 5.66 | 182 °C | 0.0055 µM |  |
| COc1cc(OC)cc(N(CC2CC2)c2ccc3ncc(Nc4nncs4)nc3c2)c1 [Compound 102] | > 1 µM | > 1 µM | <5 | 260 °C | > 1 µM | <5 |

— patent US10052320B2, “Substituted quinoxalines as FGFR kinase inhibitors” (ASTEX THERAPEUTICS LIMITED, priority 2011, dated 2018)
